From patent US20220112204A1, “SUBSTITUTED DIHYDROPYRANOPYRIMIDINE COMPOUNDS AS KRAS INHIBITORS” (ACCUTAR BIOTECHNOLOGY INC., priority 2020, published 2022)

What was measured:
KRAS-G12C mutant [1] = biological target: T1, KRAS-G12C mutant (Homo sapiens, UniProt P01116, G12C); experiment: Gel shift assay (SDS-PAGE) for covalent modification of KRAS G12C; assay type: binding; settings: 0.5 μM compound, 1 μM GDP-bound KRAS G12C, 25° C., 5 minutes, shift indicative of covalent cysteine conjugation
Experimental: 0.5 μM compounds were incubated with 1 μM GDP-bound untagged KRAS (G12C or wild type) proteins at 25° C. for 5 minutes in 40 μl reaction buffer (50 mM Tris, pH 7.5, 100 mM NaCl, 1 mM MgCl2, 1 mM DTT). The reactions were quenched with 10 μI SDS-PAGE sample loading buffer (250 mM Tris-HCl, pH 6.8, 10% SDS, 0.5% bromophenol blue, 50% glycerol and 50 mM DTT) and then analyzed via SDS-PAGE using 4%-20% gradient polyacrylamide gel followed by Coomassie blue stain.
FIG. 1 illustrates mobility change of KRAS-G12C mutant or wild type proteins on SDS-PAGE after 5 minutes of coincubation at 25° C. with exemplary compounds of the present disclosure, indicative of covalent cysteine conjugation.
Table 3 summarizes molecular weight shift of KRAS-G12C mutant on SDS-PAGE after 5 mins of coincubation at 25° C. with exemplary compounds of the present disclosure, indicative of covalent cysteine conjugation.

KRAS-G12C mutant [2] = biological target: T1, KRAS-G12C mutant; experiment: TR-FRET assay of SOS1-assisted KRAS GDP/GTP exchange; assay type: biochemical
Experimental: GDP form of 6*His tagged KRAS-G12C was diluted to 40 nM and incubated with 8 nM LanthaScreen™ Elite Terbium-anti-HIS Antibody (Thermo, catalog number PV5863) in reaction buffer containing 20 mM Tris, pH 7.5, 100 mM NaCl, 1 mM DTT, 0.1% Tween20, 0.05% BSA, 2% DMSO, 1 mM MgCl2. After 1 hour-incubation at 4° C., proteins were placed in 384 well plate (PerkinElmer, PROXIPLATE-384 PLUS). Then compounds with different concentrations were added to the proteins. BODIPY labeled GTP (Thermo, catalog number G12411) and SOS-1 (or reaction buffer as control) were then added to reactions at 200 nM and 1 μM to trigger the exchange of GDP to BODIPY-GTP. TR-FRET emission signals were determined at 520 nm and 620 nm on a Envision® Multilabel Plate Reader (PerkinElmer) using a 337 nm laser as light source. All data were analyzed and plotted using Graph Pad Prism software (version 8.0.1). Raw TR-FRET data were converted to percentage of inhibition (relative to DMSO) using the following equations: […]
b) For a given test compound concentration X:
Signal (X)=Emission ratio (SOS-1 & GTP)—Emission ratio (buffer & GTP)
c) Percentage of inhibition at concentration X=[1−Signal(X)/Signal (DMSO)]*100%
The […] values were determined by nonlinear regression of plots of [inhibitor] vs. percentage of inhibition with variable slope. Table 4 summarizes inhibition of SOS1-assisted GDP/GTP exchanging activity of KRAS-G12C mutant with exemplary compounds of the present disclosure.

[3] = system: phospho-ERK1/2 (Thr202/Tyr204) in MIA PaCa-2 cell line; experiment: pERK and ERK Western blot analysis, MIA PaCa-2; assay type: cell-based; settings: Homo sapiens; MIA PaCa-2 cell line, 4 hours after incubation; read-out: 2D pERK IC50
Experimental: MIA PaCa-2 (ATCC), NCI-H358 (ATCC), NCI-H23 (ATCC), SW837 and A549 (ATCC) cells were plated in 24-well plates at 2×10^5cells/well in RPMI growth medium containing 10% FBS and 1× Penicillin Streptomycin. They were then incubated at 37° C. overnight. The following day, the test compound was administered to the cells by using 1000× compound stock solution prepared in DMSO at various concentrations. After administration of the compound, the cells were then incubated at 37° C. for 4 hours. Upon completion, the cells were washed with PBS and protein was collected in Laemmli sample buffer (1×; VWR International). Proteins in cell lysate were separated by SDS-PAGE and transferred to Odyssey nitrocellulose membranes (Licor) with iblot® dry blotting transfer system (ThermoFisher). Nonspecific binding was blocked by incubating membranes with Intercept Blocking Buffer (Licor) for 1 hour at room temperature with gentle shaking. The membranes were then incubated overnight at 4° C. with primary antibodies rabbit anti-phospho p44/42 MAPK (Erk1/2) (1:2,000, Cell Signaling, 4370) and mouse anti-p44/42 MAPK (Erk1/2) (1:1,000, Cell Signaling, 4696) diluted in Intercept Blocking Buffer containing 0.1% Tween 20. After washing 3 times with TBS-T, the membranes were incubated with IRDye® 800CW goat anti-rabbit IgG (1:20,000, Licor) or IRDye® 680CW goat anti-mouse IgG (1:20,000, Licor) for 1 hour. After TBS-T washes, membranes were rinsed in TBS and scanned on Odyssey® CLx Imaging System (Licor). The bands were quantified using Image Studio™ Software (Licor).

Structure (SMILES)	KRAS-G12C molecular weight shift (KRAS-G12C mutant [1])	IC50 (KRAS-G12C mutant [2]) [nM]	IC50 [3] [nM]
C=C(F)C(=O)N1CCN(c2nc(OCC34CCCN3CCC4)nc3c2CO[C@@H](c2cccc4cccc(Cl)c24)C3)C[C@@H]1CC#N (single isomer, unassigned) [Compound 54]	No	2350	> 100
C=CC(=O)N1CCN(c2nc(OC[C@@H]3CCCN3C)nc3c2COC(c2cccc4cccc(Cl)c24)C3)C[C@@H]1CC#N (stereo partly drawn) [Compound 3, 2-((2S)-1-acryloyl-4-(7-(8-chloronaphthalen-1-yl)-2-(((S)-1-methylpyrrolidin-2-yl)methoxy)-7,8-dihydro-5H-pyrano[4,3-d]pyrimidin-4-yl)piperazin-2-yl)acetonitrile]	–	29	1 to 10
C=CC(=O)N1CCN(c2nc(OC[C@@H]3CCCN3C)nc3c2CO[C@@H](c2cccc4ccccc24)C3)C[C@@H]1CC#N [Compound 5, 2-((S)-1-acryloyl-4-((R)-2-(((S)-1-methylpyrrolidin-2-yl)methoxy)-7-(naphthalen-1-yl)-7,8-dihydro-5H-pyrano[4,3-d]pyrimidin-4-yl)piperazin-2-yl)acetonitrile]	–	2150	> 100
C=CC(=O)N1CCN(c2nc(OC[C@@H]3C[C@H](F)CN3C)nc3c2CO[C@@H](c2cccc4ccccc24)C3)C[C@@H]1CC#N [Compound 10, 2-((S)-1-acryloyl-4-((R)-2-(((2S,4S)-4-fluoro-1-methylpyrrolidin-2-yl)methoxy)-7-(naphthalen-1-yl)-7,8-dihydro-5H-pyrano[4,3-d]pyrimidin-4-yl)piperazin-2-yl)acetonitrile]	–	13900	> 100
C=C(F)C(=O)N1CCN(c2nc(OC[C@@H]3CCCN3C)nc3c2CO[C@@H](c2cccc4cccc(Cl)c24)C3)C[C@@H]1CC#N [Compound 19, 2-((S)-4-((R)-7-(8-chloronaphthalen-1-yl)-2-(((S)-1-methylpyrrolidin-2-yl)methoxy)-7,8-dihydro-5H-pyrano[4,3-d]pyrimidin-4-yl)-1-(2-fluoroacryloyl)piperazin-2-yl)acetonitrile]	No	80800	> 100
C=C(F)C(=O)N1CCN(c2nc(OCC34CCCN3CCC4)nc3c2[C@@H](C)O[C@@H](c2cccc4c2CCCC4)C3)C[C@@H]1CC#N [Compound 60, 2-((S)-1-(2-fluoroacryloyl)-4-((5R,7R)-5-methyl-2-((tetrahydro-1H-pyrrolizin-7a(5H)-yl)methoxy)-7-(5,6,7,8-tetrahydronaphthalen-1-yl)-7,8-dihydro-5H-pyrano[4,3-d]pyrimidin-4-yl)piperazin-2-yl)acetonitrile]	No	4200	> 100
C=C(F)C(=O)N1CCN(c2nc(OCC34CCCN3CCC4)nc3c2[C@@H](C)O[C@@H](c2cccc4cccc(C)c24)C3)C[C@@H]1CC#N [Compound 65, 2-((S)-1-(2-fluoroacryloyl)-4-((5R,7R)-5-methyl-7-(8-methylnaphthalen-1-yl)-2-((tetrahydro-1H-pyrrolizin-7a(5H)-yl)methoxy)-7,8-dihydro-5H-pyrano[4,3-d]pyrimidin-4-yl)piperazin-2-yl)acetonitrile]	No	11600	> 100
C=C(F)C(=O)N1CCN(c2nc(OCC34CCCN3CCC4)nc3c2COC(c2cccc4c2CCCC4)C3)C[C@@H]1CC#N (stereo partly drawn) [Compound 67, 2-((2S)-1-(2-fluoroacryloyl)-4-(2-((tetrahydro-1H-pyrrolizin-7a(5H)-yl)methoxy)-7-(5,6,7,8-tetrahydronaphthalen-1-yl)-7,8-dihydro-5H-pyrano[4,3-d]pyrimidin-4-yl)piperazin-2-yl)acetonitrile]	Yes	36	10 to 100

More lines, in order of falling IC50 (KRAS-G12C mutant [2]), values ahead:

KRAS-G12C molecular weight shift (KRAS-G12C mutant [1])	IC50 (KRAS-G12C mutant [2]) [nM]	IC50 [3] [nM]	Structure (SMILES)
–	7130	> 100	C=CC(=O)N1CCN(c2nc(OC[C@@H]3CCCN3C)nc3c2CO[C@@H](c2cccc4cccc(Cl)c24)C3)C[C@@H]1CC#N [Compound 6, 2-((S)-1-acryloyl-4-((R)-7-(8-chloronaphthalen-1-yl)-2-(((S)-1-methylpyrrolidin-2-yl)methoxy)-7,8-dihydro-5H-pyrano[4,3-d]pyrimidin-4-yl)piperazin-2-yl)acetonitrile]
No	4860	> 100	C=C(F)C(=O)N1CCN(c2nc(OCC34CCCN3CCC4)nc3c2CO[C@@H](c2cccc4cccc(C)c24)C3)C[C@@H]1CC#N (single isomer, unassigned) [Compound 57]
No	2540	> 100	C=C(F)C(=O)N1CCN(c2nc(OCC34CCCN3CCC4)nc3c2CO[C@@H](c2cccc4c2CCCC4)C3)C[C@@H]1CC#N [Compound 68, 2-((S)-1-(2-fluoroacryloyl)-4-((R)-2-((tetrahydro-1H-pyrrolizin-7a(5H)-yl)methoxy)-7-(5,6,7,8-tetrahydronaphthalen-1-yl)-7,8-dihydro-5H-pyrano[4,3-d]pyrimidin-4-yl)piperazin-2-yl)acetonitrile]
–	698	> 100	C=C(F)C(=O)N1CCN(c2nc(OC[C@@H]3CCCN3C)nc3c2COC(c2cccc4ccccc24)C3)C[C@@H]1CC#N (stereo partly drawn) [Compound 1, 2-((2S)-1-(2-fluoroacryloyl)-4-(2-(((S)-1-methylpyrrolidin-2-yl)methoxy)-7-(naphthalen-1-yl)-7,8-dihydro-5H-pyrano[4,3-d]pyrimidin-4-yl)piperazin-2-yl)acetonitrile]
Yes	303	10 to 100	C=C(F)C(=O)N1CCN(c2nc(OCC3(CN(C)C)CC3)nc3c2COC(c2cccc4cccc(Cl)c24)C3)C[C@@H]1CC#N (stereo partly drawn) [Compound 70, 2-((2S)-4-(7-(8-chloronaphthalen-1-yl)-2-((1-((dimethylamino)methyl)cyclopropyl)methoxy)-7,8-dihydro-5H-pyrano[4,3-d]pyrimidin-4-yl)-1-(2-fluoroacryloyl)piperazin-2-yl)acetonitrile]
